In PubChem BioAssay (NCI):
“And” between values parts separate entries of the source, which are not always exact repeats. Identical values can stand only once.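 All cell lines were grown in 96-well plates and treated with compound for 48 hours. GI50 marks 50% less growth. The concentration for full growth arrest is given as TGI.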

Key:
Experiment in all cases: NCI-60 cell line screen, 48 h
[1] = system: RPMI-8226 leukemia
[2] = system: EKVX NSCLC
[3] = system: IGROV1 ovarian
[4] = system: DU-145 prostate
[5] = system: UACC-257 melanoma
[6] = system: HL-60(TB) leukemia
[7] = system: HCT-15 colon
[8] = system: NCI-H23 lung
[9] = system: MDA-MB-435
[10] = system: SK-OV-3 ovarian

Compound	GI50 [1] [µM]	TGI [1] [µM]	GI50 [2] [µM]	TGI [2]	GI50 [3] [µM]	TGI [3] [µM]	GI50 [4] [µM]	TGI [4] [µM]	GI50 [5] [µM]	TGI [5] [µM]	GI50 [6] [µM]	TGI [6]	GI50 [7] [µM]	TGI [7] [µM]	GI50 [8] [µM]	TGI [8] [µM]	GI50 [9] [µM]	TGI [9] [µM]	GI50 [10] [µM]	TGI [10]
C/C=C(\C)C(=O)N[C@H]1C(O)C[C@]2(C)C3CC[C@@]4(C)C(CC[C@@H]4C(C)N(C)C)C3CCC2C1O (some centres not stated)	5.95	25.5	9.38	> 50.9 µM	13.3	> 43.7	12.6	> 83.3	3.22	9.75	4.44	16.9 µM	1.71	5.01	13.1	49.7	2.54	5.85	16.1	42.4 µM
COc1ccc(C2=CC(c3ccc(OC)c(OC)c3)c3c(c4ccccc4oc3=O)O2)cc1OC (configuration not stated)	1.32	16.7	1.52	> 100 µM	2.47	> 31.2	1.73	> 30.7	1.13	> 100	2.32		1.58	> 100	4.91	> 100	0.244	0.831	2.68	> 100 µM
CC(=O)Oc1ccc(C(c2ccc(OC(C)=O)cc2)c2ccccn2)cc1	30.3	> 100		> 100 µM and 57.1 µM	19.9	> 100	98.2	> 100		> 100	25.4	70 µM and 69.7 µM	31.8	> 100	5.08	> 100	53.2	> 100	31.7	> 100 µM and 98.3 µM
CC(C)COC(=O)c1ccc2[nH]c(O)c(C=Nc3ccc(S(N)(=O)=O)cc3)c2c1	2.55	18.8	3.97	15.6 µM	1.75	8.01	0.805	3.8	3.99	9.44	0.68	2.38 µM	5.9	25	1.33	5.11	1.68	5.79	2.19	6.25 µM
CC(Br)C(=O)Nc1ccc(C(=O)O)c(O)c1 (configuration not stated)		> 100		> 100 µM		> 100		> 100		> 100		> 100 µM		> 100		68.9		> 100		> 100 µM
O=C1NCCS(=O)(=O)/C1=C\C=C\c1cccc(C(F)(F)F)c1	2.19	8.31	4.31	16.5 µM	2.61	11.8	2.96	13.6	1.83	9.22	2.4	7.26 µM	1.56	5.29	1.94	8.02	1.81	6.47	5.83	18.3 µM
Cc1cccc(Nc2cnc(N)nc2N)c1		> 100		> 100 µM		> 100		> 100		> 100		> 100 µM		> 100		> 100		> 100		> 100 µM
